Test results taken from US7456154B2 (priority 2001, dated 2008).

Key:
EAMG rats [1] = assay: Electromyography: CMAP ratio under repetitive 3 Hz nerve stimulation in EAMG rats; format: in vivo, rat; conditions: for Effect on CMAP decline / muscle function in EAMG rats: comparable amounts, Table 1; for CMAP ratio (5th vs. 1st amplitude): average ± SEM; for Effect of oral administration on CMAP decline: oral gavage, 1000 μg/kg pyridostigmine, CMAP 1, 5, 24 h
AChE-R mRNA = assay: In situ hybridization of AChE-R mRNA in rat muscle; format: in vivo; conditions: healthy and EAMG rats
Procedure: In situ hybridization: Tissues were fixed in 4% paraformaldehyde and cut into 7 μm paraffin embedded sections. Spinal cord sections were deparaffinized, rehydrated using serial ethanol dilutions and permeabilized with proteinase K (10 μg/ml at room temp.). Slides were exposed to 5′ biotinylated, fully 2′-oxymethylated AChE-R or AChE-S-specific 50-mer cRNA probes complementary to human ACHE pseudo-intron 4 or exon 6, respectively [Grisaru et al. (2001) id ibid.]. Hybridization was performed overnight at 52° C. in hybridization mixture containing 10 μg/ml probe, 50 μg/ml yeast tRNA, 50 μg/ml heparin and 50% formamide in 375 mM Na chloride, 37.5 mM Na citrate, pH 4.5. For monkey sections, the probe was constructed according to the human AChE-R sequence; for rat sections, according to the mouse sequence. Slides were washed to remove non-hybridized probe, blocked with 1% skim milk containing 0.01% Tween-20 and 2 mM levamisole, an alkaline phosphatase inhibitor used to suppress non-specific staining and incubate with streptavidin-alkaline phosphatase (Amersham Pharmacia). Fast Red™ substrate (Roche Diagnostics) was used for detection. DAPI staining (Sigma Chemical Co., St. Louis, Mo., USA) served to visualize nuclei. Microscope images were analyzed with Image Pro Plus 4.0 (Media Cybernetics) software. […]

EAMG rats [2] = assay: Repeated daily treatment of EAMG rats (5 days and 1 month): survival, body weight, status; format: in vivo, rat
Excerpt: As shown in Example 5, unlike anti-cholinesterases, rEN101 afforded long-term maintenance of stable CMAP. This further enabled the inventors to test whether the cholinergic imbalance contributes to the physiological deterioration that is characteristic of EAMG. Rats were first treated with rEN101 once a day for 5 days, CMAPs being determined prior to each treatment. Both the efficacy of rEN101 in retrieving normal CMAP and its capacity to reduce the inter-animal variability in CMAP values reached similar levels to those of pyridostigmine (FIGS. 11A and 11B). However, the onset of response to pyridostigmine was more rapid (Table 1), while that observed with rEN101 was longer-lasting. Daily oral or i.v administration of rEN101 stabilized CMAPs over the entire course of treatment (FIG. 11B). In contrast, the effect of pyridostigmine wore off within several hours, causing pronounced fluctuations in muscle status (Table 1 and FIG. 11). Among the animals treated daily with pyridostigmine, 5 out of 6 died within the 5 day experimental course. In contrast, 6 out of 8 animals treated once-a-day with rEN101 via o.g. survived the full 5 day period. This conspicuous difference might reflect the susceptibility of EAMG rats to repeated anesthesia and CMAP measurements. In order to avoid these additional stresses and evaluate the effect of the antisense treatment on EAMG pathophysiology, the inventors subjected groups of moderately sick animals to 1 month of daily oral treatment with minimal interference. […] One way repeated measures ANOVA yielded P<0.05 for all other measures (AS vs. other treatments at 4 weeks). The effect of rEN101 on clinical symptoms was also corroborated by body weight changes. Rats treated with saline and Mestinon treated groups lost 13.5 and 11 g/animal, respectively, whereas animals treated with rEN101 gained, on average, 13 g during the treatment period. Thus, daily rEN101 administration promoted long-term change in the course of EAMG in rats with moderate to severe symptoms, under the same conditions in which untreated or pyridostigmine-treated animals deteriorated.

[3] = intravenous, EAMG rats, 0 h, 50 μg/Kg
[4] = intravenous, EAMG rats, 1 h, 50 μg/Kg
[5] = intravenous, EAMG rats, 5 h, 50 μg/Kg
[6] = intravenous, EAMG rats, 24 h, 50 μg/Kg
[7] = oral, EAMG rats, 0 h, 50 μg/Kg oligonucleotide, 1000 μg/Kg pyridostigmine
[8] = oral, EAMG rats, 1 h, 50 μg/Kg oligonucleotide, 1000 μg/Kg pyridostigmine
[9] = oral, EAMG rats, 5 h, 50 μg/Kg oligonucleotide, 1000 μg/Kg pyridostigmine
[10] = oral, EAMG rats, 24 h, 50 μg/Kg oligonucleotide, 1000 μg/Kg pyridostigmine

| Compound | Effect on CMAP decline / muscle function in EAMG rats (EAMG rats [1]) | CMAP ratio (5th vs. 1st amplitude) (EAMG rats [1]; [3]) | CMAP ratio (5th vs. 1st amplitude) (EAMG rats [1]; [4]) | CMAP ratio (5th vs. 1st amplitude) (EAMG rats [1]; [5]) | CMAP ratio (5th vs. 1st amplitude) (EAMG rats [1]; [6]) | Effect of oral administration on CMAP decline (EAMG rats [1]; 50 μg/Kg oligonucleotide) | CMAP ratio (5th vs. 1st amplitude) (EAMG rats [1]; [7]) | CMAP ratio (5th vs. 1st amplitude) (EAMG rats [1]; [8]) | CMAP ratio (5th vs. 1st amplitude) (EAMG rats [1]; [9]) | CMAP ratio (5th vs. 1st amplitude) (EAMG rats [1]; [10]) | CMAP after treatment (EAMG rats [1]; 75 μg/kg i.p., EAMG rats) | Duration of effect on CMAP (EAMG rats [1]; 75 μg/kg i.p., EAMG rats) [h] | Onset of effect on CMAP after injection (EAMG rats [1]; 75 μg/kg i.p., EAMG rats) [min] | CMAP after treatment relative to untreated level (EAMG rats [1]; 75 μg/kg i.p., EAMG rats, untreated 87.6% of first evoked potential) | AChE-R mRNA labeling in muscle (AChE-R mRNA) | CMAP ratio 24 h following single oral administration (EAMG rats [1]; single oral dose, rEN101 50 μg/kg, pyridostigmine 1000 μg/kg) | Animals that died within the 5 day experimental course (EAMG rats [2]; EAMG rats treated daily, with repeated anesthesia and CMAP measurements) | Body weight lost during the treatment period (EAMG rats [2]; EAMG rats, 1 month daily oral treatment) [g/animal] |
| --- | --- | --- | --- | --- | --- | --- | --- | --- | --- | --- | --- | --- | --- | --- | --- | --- | --- | --- |
| 5′-GGGAGAGGAGGAGGAAGAGG-3′ [rEN102] | induced similar rectification of CMAP decline | 0.85 ± 0.06 | 1.04 ± 0.01 | 0.98 ± 0.03 | 1.00 ± 0.01 | active in reversing CMAP decline | 0.82 ± 0.02 | 0.86 ± 0.04 | 0.96 ± 0.02 | 0.95 ± 0.03 | – | – | – | – | – | – | – | – |
| CN(C)C(=O)Oc1cccc([N+](C)(C)C)c1 [neostigmine bromide, reference compound] | – | – | – | – | – | – | – | – | – | – | 107.4 % of the first evoked potential | 2 | 15 | over 120 % of this level | – | – | – | – |
| 5′-GGAGAAGGAGGAGGAGAGGG-3′ (chemistry not given here) [r-invEN102, reference compound] | did not improve muscle function | 0.89 ± 0.02 | 0.89 ± 0.03 | 0.89 ± 0.02 | 0.90 ± 0.02 | had no significant effect | 0.78 ± 0.06 | 0.86 ± 0.05 | 0.86 ± 0.05 | 0.81 ± 0.08 | – | – | – | – | unaffected | – | – | – |
| CN(C)C(=O)Oc1ccc[n+](C)c1 [pyridostigmine, reference compound] | – | – | – | – | – | restored CMAP for up to several hours | 0.90 ± 0.01 | 0.98 ± 0.01 | 0.96 ± 0.02 | 0.87 ± 0.02 | – | – | – | – | – | returned to the declining baseline | 5 out of 6 | 11 |
